How the values were obtained:
B2 bradykinin receptor = target: T1, B2 bradykinin receptor (Homo sapiens, UniProt P30411); assay type: cell membranes, Membrane; details: chem-1; further: in other assays of this panel Not Active means under 50% inhibition at 10 µM
T1 sequence (P30411 whole entry): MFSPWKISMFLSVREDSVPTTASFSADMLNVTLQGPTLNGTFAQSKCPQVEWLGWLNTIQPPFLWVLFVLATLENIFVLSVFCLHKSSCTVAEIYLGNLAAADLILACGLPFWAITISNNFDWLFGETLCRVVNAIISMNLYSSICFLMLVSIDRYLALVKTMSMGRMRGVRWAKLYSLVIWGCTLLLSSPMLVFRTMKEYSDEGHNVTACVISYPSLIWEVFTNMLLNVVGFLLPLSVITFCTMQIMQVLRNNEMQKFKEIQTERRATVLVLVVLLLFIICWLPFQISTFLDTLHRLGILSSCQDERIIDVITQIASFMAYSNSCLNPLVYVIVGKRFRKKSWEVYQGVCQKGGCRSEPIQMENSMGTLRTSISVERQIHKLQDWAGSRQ

[1] = target: 5-hydroxytryptamine receptor 2B (Homo sapiens, UniProt P41595); assay type: cell membranes, CHO-K1, Membrane; details: cho-k1; further: in other assays of this panel Not Active means under 50% inhibition at 10 µM
[2] = target: T2, C-X-C chemokine receptor type 2 (Homo sapiens, UniProt P25025); assay type: cell membranes, CHO-K1, Membrane; details: cho-k1; further: in other assays of this panel Not Active means under 50% inhibition at 10 µM
T2 sequence (P25025 whole entry): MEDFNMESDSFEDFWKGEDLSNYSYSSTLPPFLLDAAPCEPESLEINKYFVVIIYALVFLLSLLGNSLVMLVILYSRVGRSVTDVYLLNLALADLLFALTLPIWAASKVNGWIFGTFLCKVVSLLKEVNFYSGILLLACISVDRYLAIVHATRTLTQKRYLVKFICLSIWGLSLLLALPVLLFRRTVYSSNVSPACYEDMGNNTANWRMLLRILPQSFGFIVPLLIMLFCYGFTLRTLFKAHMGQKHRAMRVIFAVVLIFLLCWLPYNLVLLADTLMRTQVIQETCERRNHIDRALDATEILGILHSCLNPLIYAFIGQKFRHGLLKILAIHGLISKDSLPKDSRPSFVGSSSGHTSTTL

[3] = DRUGMATRIX: Phorbol Ester radioligand binding (ligand: [3H] PDBu); assay type: cell membranes, Mus musculus, ICR, Brain, Membrane; details: Not Active = under 50% inhibition at 10 µM
[4] = DRUGMATRIX: Platelet-Derived Growth Factor (PDGF) radioligand binding (ligand: [125I] PDGF); assay type: cell-based; details: nih3t3; Not Active = under 50% inhibition at 10 µM
Cytochrome P450 2A6 = target: T3, Cytochrome P450 2A6 (Homo sapiens, UniProt P11509); details: bti-tn-5b1-4; further: in other assays of this panel Not Active means under 50% inhibition at 10 µM
T3 sequence (P11509 whole entry): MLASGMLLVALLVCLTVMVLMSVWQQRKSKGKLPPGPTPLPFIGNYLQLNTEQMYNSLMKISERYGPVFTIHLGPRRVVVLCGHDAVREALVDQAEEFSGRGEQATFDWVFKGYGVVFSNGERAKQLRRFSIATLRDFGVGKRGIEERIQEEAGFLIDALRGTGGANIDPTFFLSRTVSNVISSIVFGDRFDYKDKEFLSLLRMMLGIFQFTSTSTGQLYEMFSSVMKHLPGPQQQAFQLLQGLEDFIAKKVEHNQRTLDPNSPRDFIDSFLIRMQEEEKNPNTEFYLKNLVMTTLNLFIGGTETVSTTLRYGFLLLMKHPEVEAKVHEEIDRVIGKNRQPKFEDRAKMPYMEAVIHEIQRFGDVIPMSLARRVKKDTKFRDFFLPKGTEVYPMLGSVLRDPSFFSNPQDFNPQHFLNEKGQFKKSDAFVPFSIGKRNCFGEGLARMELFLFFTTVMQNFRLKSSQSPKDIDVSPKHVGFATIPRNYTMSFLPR

Cytochrome P450 2C9 = Cytochrome P450 2C9 (Homo sapiens, UniProt P11712); details: bti-tn-5b1-4; further: in other assays of this panel Not Active means under 50% inhibition at 10 µM
Cytochrome P450 2E1 = Cytochrome P450 2E1 (Homo sapiens, UniProt P05181); details: bti-tn-5b1-4; further: in other assays of this panel Not Active means under 50% inhibition at 10 µM
Sequence of Cytochrome P450 2E1 (P05181 whole entry): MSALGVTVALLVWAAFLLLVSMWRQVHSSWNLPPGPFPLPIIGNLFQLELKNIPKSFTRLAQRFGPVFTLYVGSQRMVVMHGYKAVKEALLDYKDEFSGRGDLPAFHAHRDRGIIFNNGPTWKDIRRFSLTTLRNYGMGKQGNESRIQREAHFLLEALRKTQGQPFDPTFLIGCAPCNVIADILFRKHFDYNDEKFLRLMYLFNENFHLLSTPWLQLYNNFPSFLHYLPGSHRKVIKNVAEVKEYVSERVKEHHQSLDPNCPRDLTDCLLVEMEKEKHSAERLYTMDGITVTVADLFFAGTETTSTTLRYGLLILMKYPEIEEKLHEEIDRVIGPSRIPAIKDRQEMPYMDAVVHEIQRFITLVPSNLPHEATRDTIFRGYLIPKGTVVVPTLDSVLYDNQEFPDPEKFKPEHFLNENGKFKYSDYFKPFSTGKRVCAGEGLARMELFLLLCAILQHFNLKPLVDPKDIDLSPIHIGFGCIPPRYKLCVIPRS

Sequence of 5-hydroxytryptamine receptor 2B (P41595 whole entry): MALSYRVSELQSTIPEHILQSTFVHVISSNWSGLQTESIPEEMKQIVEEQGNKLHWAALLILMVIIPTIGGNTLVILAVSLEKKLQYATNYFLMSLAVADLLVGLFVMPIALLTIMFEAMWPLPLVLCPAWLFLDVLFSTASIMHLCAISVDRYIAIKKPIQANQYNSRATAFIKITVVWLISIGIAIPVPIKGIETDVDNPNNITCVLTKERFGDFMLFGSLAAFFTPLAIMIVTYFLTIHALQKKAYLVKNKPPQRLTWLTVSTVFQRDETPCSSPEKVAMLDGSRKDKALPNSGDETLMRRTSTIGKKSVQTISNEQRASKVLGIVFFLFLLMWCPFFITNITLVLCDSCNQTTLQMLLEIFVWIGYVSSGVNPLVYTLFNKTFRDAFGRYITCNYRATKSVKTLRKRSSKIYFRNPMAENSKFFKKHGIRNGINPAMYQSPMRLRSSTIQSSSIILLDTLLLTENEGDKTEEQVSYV
Sequence of Cytochrome P450 2C9 (P11712 whole entry): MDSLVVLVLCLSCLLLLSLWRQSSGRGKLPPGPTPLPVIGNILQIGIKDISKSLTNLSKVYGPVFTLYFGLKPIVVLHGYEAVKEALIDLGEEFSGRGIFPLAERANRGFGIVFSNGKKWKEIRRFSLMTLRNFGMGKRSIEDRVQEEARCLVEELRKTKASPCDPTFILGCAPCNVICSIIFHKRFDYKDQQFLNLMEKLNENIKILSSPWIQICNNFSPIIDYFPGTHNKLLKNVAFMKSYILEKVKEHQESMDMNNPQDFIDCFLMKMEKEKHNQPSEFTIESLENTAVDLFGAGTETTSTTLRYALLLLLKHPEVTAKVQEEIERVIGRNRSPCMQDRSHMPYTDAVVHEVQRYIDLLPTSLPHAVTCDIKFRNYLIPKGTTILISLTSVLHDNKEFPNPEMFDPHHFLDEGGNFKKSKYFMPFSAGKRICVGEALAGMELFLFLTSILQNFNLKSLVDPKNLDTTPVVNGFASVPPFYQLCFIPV

C=CCO [ALLYL ALCOHOL]
Not Active: IC50 (B2 bradykinin receptor) | IC50 [1] | IC50 [2] | IC50 [3] | Ki [3] | IC50 [4] | Ki [4] | IC50 (Cytochrome P450 2A6) | Ki (Cytochrome P450 2A6) | IC50 (Cytochrome P450 2C9) | Ki (Cytochrome P450 2C9) | IC50 (Cytochrome P450 2E1) | Ki (Cytochrome P450 2E1)

Nc1nc(N)c2nc(CNc3ccc(C(=O)N[C@@H](CCC(=O)O)C(=O)O)cc3)cnc2n1 [AMINOPTERIN]
Not Active: IC50 (B2 bradykinin receptor) | IC50 [1] | IC50 [2] | IC50 [3] | Ki [3] | IC50 [4] | Ki [4] | IC50 (Cytochrome P450 2A6) | Ki (Cytochrome P450 2A6) | IC50 (Cytochrome P450 2C9) | Ki (Cytochrome P450 2C9) | IC50 (Cytochrome P450 2E1) | Ki (Cytochrome P450 2E1)

Nc1ccc(C(=O)O)c(O)c1 [AMINOSALICYLIC ACID]
Not Active: IC50 (B2 bradykinin receptor) | IC50 [1] | IC50 [2] | IC50 [3] | Ki [3] | IC50 [4] | Ki [4] | IC50 (Cytochrome P450 2A6) | Ki (Cytochrome P450 2A6) | IC50 (Cytochrome P450 2C9) | Ki (Cytochrome P450 2C9) | IC50 (Cytochrome P450 2E1) | Ki (Cytochrome P450 2E1)

C[C@@H]1[C@H](O)[C@@H](C)/C=C/C=C/C=C/C=C/C=C/C=C/C=C/[C@H](O[C@@H]2O[C@H](C)[C@@H](O)[C@H](N)[C@@H]2O)C[C@@H]2O[C@](O)(C[C@@H](O)C[C@@H](O)[C@H](O)CC[C@@H](O)C[C@@H](O)CC(=O)O[C@H]1C)C[C@H](O)[C@H]2C(=O)O [AMPHOTERICIN B]
Not Active: IC50 (B2 bradykinin receptor) | IC50 [1] | IC50 [2] | IC50 [3] | Ki [3] | IC50 [4] | Ki [4] | IC50 (Cytochrome P450 2A6) | Ki (Cytochrome P450 2A6) | IC50 (Cytochrome P450 2C9) | Ki (Cytochrome P450 2C9) | IC50 (Cytochrome P450 2E1) | Ki (Cytochrome P450 2E1)

CC(C)(C#N)c1cc(Cn2cncn2)cc(C(C)(C)C#N)c1 [ANASTROZOLE]
Not Active: IC50 (B2 bradykinin receptor) | IC50 [1] | IC50 [2] | IC50 [3] | Ki [3] | IC50 [4] | Ki [4] | IC50 (Cytochrome P450 2A6) | Ki (Cytochrome P450 2A6) | IC50 (Cytochrome P450 2C9) | Ki (Cytochrome P450 2C9) | IC50 (Cytochrome P450 2E1) | Ki (Cytochrome P450 2E1)

C[C@]12CC[C@@H](O)C[C@@H]1CC[C@@H]1[C@@H]2CC[C@]2(C)C(=O)CC[C@@H]12 [ANDROSTERONE]
Not Active: IC50 (B2 bradykinin receptor) | IC50 [1] | IC50 [2] | IC50 [3] | Ki [3] | IC50 [4] | Ki [4] | IC50 (Cytochrome P450 2A6) | Ki (Cytochrome P450 2A6) | IC50 (Cytochrome P450 2C9) | Ki (Cytochrome P450 2C9) | IC50 (Cytochrome P450 2E1) | Ki (Cytochrome P450 2E1)

NCC(CC(=O)O)c1ccc(Cl)cc1 (stereo not drawn) [BACLOFEN]
Not Active: IC50 (B2 bradykinin receptor) | IC50 [1] | IC50 [2] | IC50 [3] | Ki [3] | IC50 [4] | Ki [4] | IC50 (Cytochrome P450 2A6) | Ki (Cytochrome P450 2A6) | IC50 (Cytochrome P450 2C9) | Ki (Cytochrome P450 2C9) | IC50 (Cytochrome P450 2E1) | Ki (Cytochrome P450 2E1)

O=C(O)c1ccccc1 [BENZOIC ACID]
Not Active: IC50 (B2 bradykinin receptor) | IC50 [1] | IC50 [2] | IC50 [3] | Ki [3] | IC50 [4] | Ki [4] | IC50 (Cytochrome P450 2A6) | Ki (Cytochrome P450 2A6) | IC50 (Cytochrome P450 2C9) | Ki (Cytochrome P450 2C9) | IC50 (Cytochrome P450 2E1) | Ki (Cytochrome P450 2E1)

c1ccc2sc(SSc3nc4ccccc4s3)nc2c1 [BENZOTHIAZYL DISULFIDE]
Not Active: IC50 (B2 bradykinin receptor) | IC50 [1] | IC50 [2] | IC50 [3] | Ki [3] | IC50 [4] | Ki [4] | IC50 (Cytochrome P450 2A6) | Ki (Cytochrome P450 2A6) | IC50 (Cytochrome P450 2C9) | Ki (Cytochrome P450 2C9) | IC50 (Cytochrome P450 2E1) | Ki (Cytochrome P450 2E1)

OC[C@H]1O[C@@H]2O[C@H]3[C@H](O)[C@@H](O)[C@@H](O[C@H]4[C@H](O)[C@@H](O)[C@@H](O[C@H]5[C@H](O)[C@@H](O)[C@@H](O[C@H]6[C@H](O)[C@@H](O)[C@@H](O[C@H]7[C@H](O)[C@@H](O)[C@@H](O[C@H]8[C@H](O)[C@@H](O)[C@@H](O[C@H]1[C@H](O)[C@H]2O)O[C@@H]8CO)O[C@@H]7CO)O[C@@H]6CO)O[C@@H]5CO)O[C@@H]4CO)O[C@@H]3CO [BETADEX]
Not Active: IC50 (B2 bradykinin receptor) | IC50 [1] | IC50 [2] | IC50 [3] | Ki [3] | IC50 [4] | Ki [4] | IC50 (Cytochrome P450 2A6) | Ki (Cytochrome P450 2A6) | IC50 (Cytochrome P450 2C9) | Ki (Cytochrome P450 2C9) | IC50 (Cytochrome P450 2E1) | Ki (Cytochrome P450 2E1)

CC(C)(c1ccc(O)cc1)c1ccc(O)cc1 [BISPHENOL A]
Not Active: IC50 (B2 bradykinin receptor) | IC50 [1] | IC50 [2] | IC50 [3] | Ki [3] | IC50 [4] | Ki [4] | IC50 (Cytochrome P450 2A6) | Ki (Cytochrome P450 2A6) | IC50 (Cytochrome P450 2C9) | Ki (Cytochrome P450 2C9) | IC50 (Cytochrome P450 2E1) | Ki (Cytochrome P450 2E1)
